≈ marks a conversion by molar mass, not a printed value.
How the values were obtained:
[1] = tested on: Fusarium verticillioides; experiment: (§1) Fungicidal activity against Fusarium verticilliodes isolate YZ05 in rice seeds harvested from bakane diseased plants assessed as number of seedlings abnormally elongated or exhibiting symptoms of damping-off at 12.5 ug/ml at 30 degC incubated for 72 hr measured after 3 days under greenhouse trials (reference value: 33.3%); assay type: functional
[2] = tested on: Fusarium verticillioides; experiment: as §1, with “YZ10” for “YZ05”, “8.33” for “12.5”, “49.2%)” for “33.3%)”; assay type: functional
[3] = tested on: Fusarium verticillioides; experiment: as §1, with “YZ04” for “YZ05”, “44.2%)” for “33.3%)”; assay type: functional
[4] = tested on: Fusarium verticillioides; experiment: as §1, with “JS03” for “YZ05”, “8.33” for “12.5”, “15.8%)” for “33.3%)”; assay type: functional
[5] = tested on: Fusarium verticillioides; experiment: as §1, with “JS03” for “YZ05”, “6.25” for “12.5”, “15.8%)” for “33.3%)”; assay type: functional
[6] = tested on: Fusarium verticillioides; experiment: as §1, with “N01” for “YZ05”, “25” for “12.5”, “27.4%)” for “33.3%)”; assay type: functional
[7] = tested on: Fusarium verticillioides; experiment: as §1, with “JS09” for “YZ05”, “32.6%)” for “33.3%)”; assay type: functional
[8] = tested on: Fusarium verticillioides; experiment: as §1, with “YZ07” for “YZ05”, “43.2%)” for “33.3%)”; assay type: functional
[9] = tested on: Fusarium verticillioides; experiment: as §1, with “YZ12” for “YZ05”, “6.25” for “12.5”, “45.8%)” for “33.3%)”; assay type: functional
[10] = tested on: Oryza sativa; experiment: Effect on germination of healthy Oryza sativa (rice) seed cultivar Fengliangyou 4 at 6.25 to 25 ug/ml at 25 degC after 72 hr; assay type: ADME, organism-based; settings: in vivo
[11] = tested on: Fusarium verticillioides; experiment: as §1, with “N05” for “YZ05”, “8.33” for “12.5”, “6.2%)” for “33.3%)”; assay type: functional
[12] = tested on: Fusarium verticillioides; experiment: as §1, with “JS05” for “YZ05”, “6.25” for “12.5”, “36.4%)” for “33.3%)”; assay type: functional
[13] = tested on: Fusarium verticillioides; experiment: as §1, with “N03” for “YZ05”, “25” for “12.5”, “36.1%)” for “33.3%)”; assay type: functional
[14] = tested on: Fusarium verticillioides; experiment: as §1, with “N01” for “YZ05”, “6.25” for “12.5”, “27.4%)” for “33.3%)”; assay type: functional
[15] = tested on: Fusarium verticillioides; experiment: as §1, with “YZ22” for “YZ05”, “22.5%)” for “33.3%)”; assay type: functional
[16] = tested on: Fusarium verticillioides; experiment: as §1, with “YZ13” for “YZ05”, “6.25” for “12.5”, “26.8%)” for “33.3%)”; assay type: functional
[17] = tested on: Fusarium verticillioides; experiment: as §1, with “N06” for “YZ05”, “9.6%)” for “33.3%)”; assay type: functional
[18] = tested on: Fusarium verticillioides; experiment: as §1, with “YZ11” for “YZ05”, “33.7%)” for “33.3%)”; assay type: functional
[19] = tested on: Fusarium verticillioides; experiment: as §1, with “YZ13” for “YZ05”, “8.33” for “12.5”, “26.8%)” for “33.3%)”; assay type: functional
[20] = tested on: Fusarium verticillioides; experiment: as §1, with “JS05” for “YZ05”, “8.33” for “12.5”, “36.4%)” for “33.3%)”; assay type: functional
[21] = tested on: Fusarium verticillioides; experiment: as §1, with “YZ07” for “YZ05”, “25” for “12.5”, “43.2%)” for “33.3%)”; assay type: functional
[22] = tested on: Fusarium verticillioides; experiment: as §1, with “YZ03” for “YZ05”, “21.3%)” for “33.3%)”; assay type: functional
[23] = tested on: Fusarium verticillioides; experiment: as §1, with “N04” for “YZ05”, “14.5%)” for “33.3%)”; assay type: functional
[24] = tested on: Fusarium verticillioides; experiment: as §1, with “N04” for “YZ05”, “6.25” for “12.5”, “14.5%)” for “33.3%)”; assay type: functional
[25] = tested on: Fusarium verticillioides; experiment: as §1, with “YZ11” for “YZ05”, “25” for “12.5”, “33.7%)” for “33.3%)”; assay type: functional
[26] = tested on: Fusarium verticillioides; experiment: Fungicidal activity against Fusarium verticilliodes in rice seeds harvested from bakane diseased plants assessed as mycelial growth inhibition at 25 degC after 3 to 5 days; assay type: functional, organism-based
[27] = tested on: Fusarium verticillioides; experiment: as §1, with “N05” for “YZ05”, “6.25” for “12.5”, “6.2%)” for “33.3%)”; assay type: functional
[28] = tested on: Fusarium verticillioides; experiment: as §1, with “JS08” for “YZ05”, “8.33” for “12.5”, “13.0%)” for “33.3%)”; assay type: functional
[29] = tested on: Fusarium verticillioides; experiment: as §1, with “JS06” for “YZ05”, “25.2%)” for “33.3%)”; assay type: functional
[30] = tested on: Fusarium verticillioides; experiment: as §1, with “YZ22” for “YZ05”, “6.25” for “12.5”, “22.5%)” for “33.3%)”; assay type: functional
[31] = tested on: Fusarium verticillioides; experiment: as §1, with “JS07” for “YZ05”, “6.25” for “12.5”, “33.8%)” for “33.3%)”; assay type: functional
[32] = tested on: Fusarium verticillioides; experiment: as §1, with “YZ12” for “YZ05”, “8.33” for “12.5”, “45.8%)” for “33.3%)”; assay type: functional
[33] = tested on: Oryza sativa; experiment: Effect on emergence of healthy Oryza sativa (rice) seedlings measured after seeds germinated; assay type: ADME, organism-based; settings: in vivo

In the case of `CCOC(=O)/C(C#N)=C(/N)c1ccccc1`, the Activity [1] is reported as 0%, the Activity [2] is reported as 0% and the Activity [3] is reported as 0%. The Activity [4] was 0%, the Activity [5] was 1.4% and the Activity [6] was 0%. The Activity [7] was 0%, the Activity [8] was 0% and the Activity [9] was 3.2%. The Activity [10] was “Non-toxic”, the Activity [11] was 0% and the Activity [12] was 2.8%. It also gave an Activity [13] of 0%, an Activity [14] of 0.8% and an Activity [15] of 0.5%. For the same molecule, the Activity [16] was 0.8%, the Activity [17] was 0% and the Activity [18] was 0%. The Activity [19] was 0%, the Activity [20] was 0.2% and the Activity [21] was 0%. The Activity [22] was 0%, the Activity [23] was 0% and the Activity [24] was 1.8%. For the same molecule, the Activity [25] was 0%, the EC50 [26] was 0.379 mg/L (≈ 1.75 µM) and the Activity [27] was 0.4%. It also gave an Activity [28] of 0%, an Activity [29] of 0% and an Activity [30] of 2.7%. The Activity [31] was 1.3%, the Activity [32] was 1.4% and the Activity [33] was “Non-toxic”.
